Oligonucleotides are written 5' to 3', each unit as a sugar letter and its base; * is a phosphorothioate linkage, no mark a phosphodiester; rarer units and linkages stand in square brackets, end groups in braces. Plain capitals give the bases only. e = 2'-O-(2-methoxyethyl) (MOE); [5mC] = 5-methylcytosine; d = 2'-deoxy (DNA)
tested on: human glucose-6-phosphatase translocase mRNA; assay: Antisense inhibition of human glucose-6-phosphatase translocase mRNA in HepG2 cells (Table 11); assay type: cell-based; design: concentration or dose not given beside the values; conditions: LIPOFECTIN, mRNA by real-time PCR
Procedure: The human hepatoblastoma cell line HepG2 was obtained from the American Type Culture Collection (Manassas, Va.). HepG2 cells were routinely cultured in Eagle's MEM supplemented with 10% fetal bovine serum, 1 mM non-essential amino acids, and 1 mM sodium pyruvate (Invitrogen Life Technologies, Carlsbad, Calif.). Cells were routinely passaged by trypsinization and dilution when they reached approximately 90% confluence. Multiwell culture plates are prepared for cell culture by coating with a 1:100 dilution of type 1 rat tail collagen (BD Biosciences, Bedford, Mass.) in phosphate-buffered saline. The collagen-containing plates were incubated at 37° C. for approximately 1 hour, after which the collagen was removed and the wells were washed twice with phosphate-buffered saline. Cells were seeded into 96-well plates (Falcon-Primaria #353872, BD Biosciences, Bedford, Mass.) at a density of approximately 8,000 cells/well for use in oligomeric compound transfection experiments.
When cells reached 65-75% confluency, they were treated with oligonucleotide. Oligonucleotide was mixed with LIPOFECTIN™ Invitrogen Life Technologies, Carlsbad, Calif.) in Opti-MEM™-1 reduced serum medium (Invitrogen Life Technologies, Carlsbad, Calif.) to achieve the desired concentration of oligonucleotide and a LIPOFECTIN™ concentration of 2.5 or 3 μg/mL per 100 nM oligonucleotide. This transfection mixture was incubated at room temperature for approximately 0.5 hours. For cells grown in 96-well plates, wells were washed once with 100 μL OPTI-MEM™-1 and then treated with 130 μL of the transfection mixture. Cells grown in 24-well plates or other standard tissue culture plates are treated similarly, using appropriate volumes of medium and oligonucleotide. Cells are treated and data are obtained in duplicate or triplicate. After approximately 4-7 hours of treatment at 37° C., the medium containing the transfection mixture was replaced with fresh culture medium. Cells were harvested 16-24 hours after oligonucleotide treatment.
(§1) Quantitation of glucose 6-phosphatase translocase mRNA levels was accomplished by real-time quantitative PCR using the ABI PRISM™ 7600, 7700, or 7900 Sequence Detection System (PE-Applied Biosystems, Foster City, Calif.) according to manufacturer's instructions.
(§2) Prior to quantitative PCR analysis, primer-probe sets specific to the target gene being measured were evaluated for their ability to be “multiplexed” with a GAPDH amplification reaction. After isolation the RNA is subjected to sequential reverse transcriptase (RT) reaction and real-time PCR, both of which are performed in the same well. RT and PCR reagents were obtained from Invitrogen Life Technologies (Carlsbad, Calif.). […] The RT reaction was carried out by incubation for 30 minutes at 48° C. Following a 10 minute incubation at 95° C. to activate the PLATINUM® Taq, 40 cycles of a two-step PCR protocol were carried out: 95° C. for 15 seconds (denaturation) followed by 60° C. for 1.5 minutes (annealing/extension).
(§3) Gene target quantities obtained by RT, real-time PCR were normalized using either the expression level of GAPDH, a gene whose expression is constant, or by quantifying total RNA using RiboGreen™ (Molecular Probes, Inc. Eugene, Oreg.). GAPDH expression was quantified by RT, real-time PCR, by being run simultaneously with the target, multiplexing, or separately. Total RNA was quantified using RiboGreen™ RNA quantification reagent (Molecular Probes, Inc. Eugene, Oreg.).
A series of oligomeric compounds was designed to target different regions of human glucose-6-phosphatase translocase, using published sequences cited in Table 1. All compounds in Table 4 are chimeric oligonucleotides (“gapmers”) 20 nucleotides in length, composed of a central “gap” region consisting of 10 2′-deoxynucleotides, which is flanked on both sides (5′ and 3′) by five-nucleotide “wings”. The wings are composed of 2′-O-(2-methoxyethyl) nucleotides, also known as 2′-MOE nucleotides. […]

Row | Sequence | % Inhib [%]
1 | ACAACCACACACAGTGCCCC (eA*e[5mC]*eA*eA*e[5mC]*d[5mC]*dA*d[5mC]*dA*d[5mC]*dA*d[5mC]*dA*dG*dT*eG*e[5mC]*e[5mC]*e[5mC]*e[5mC]; antisense) [ISIS 359519] | 53
2 | ACAGCTCCCAATACCAGGAT (eA*e[5mC]*eA*eG*e[5mC]*dT*d[5mC]*d[5mC]*d[5mC]*dA*dA*dT*dA*d[5mC]*d[5mC]*eA*eG*eG*eA*eT; antisense) [ISIS 359537] | 93
3 | ACATCAGCAGGTTCATTGTG (eA*e[5mC]*eA*eT*e[5mC]*dA*dG*d[5mC]*dA*dG*dG*dT*dT*d[5mC]*dA*eT*eT*eG*eT*eG; antisense) [ISIS 359523] | 43
4 | ACCAAGTGCCAAACTGAGAT (eA*e[5mC]*e[5mC]*eA*eA*dG*dT*dG*d[5mC]*d[5mC]*dA*dA*dA*d[5mC]*dT*eG*eA*eG*eA*eT; antisense) [ISIS 359509] | 24
5 | ACTCGGCCCATCTTGGTGCG (eA*e[5mC]*eT*e[5mC]*eG*dG*d[5mC]*d[5mC]*d[5mC]*dA*dT*d[5mC]*dT*dT*dG*eG*eT*eG*e[5mC]*eG; antisense) [ISIS 359548] | 96
6 | AGAGGAAGGAGACAACCACA (eA*eG*eA*eG*eG*dA*dA*dG*dG*dA*dG*dA*d[5mC]*dA*dA*e[5mC]*e[5mC]*eA*e[5mC]*eA; antisense) [ISIS 359521] | 32
7 | AGCAGGTTCATTGTGGATGA (eA*eG*e[5mC]*eA*eG*dG*dT*dT*d[5mC]*dA*dT*dT*dG*dT*dG*eG*eA*eT*eG*eA; antisense) [ISIS 359522] | 91
8 | AGCCAGGTTCATGCTGGTTG (eA*eG*e[5mC]*e[5mC]*eA*dG*dG*dT*dT*d[5mC]*dA*dT*dG*d[5mC]*dT*eG*eG*eT*eT*eG; antisense) [ISIS 359513] | 62
9 | ATGGCCCACCAAGTGCCAAA (eA*eT*eG*eG*e[5mC]*d[5mC]*d[5mC]*dA*d[5mC]*d[5mC]*dA*dA*dG*dT*dG*e[5mC]*e[5mC]*eA*eA*eA; antisense) [ISIS 359510] | 38
10 | CAAATACAGCTCCCAATACC (e[5mC]*eA*eA*eA*eT*dA*d[5mC]*dA*dG*d[5mC]*dT*d[5mC]*d[5mC]*d[5mC]*dA*eA*eT*eA*e[5mC]*e[5mC]; antisense) [ISIS 359538] | 29
11 | CAAGGAGCCCTTCTTGCCCT (e[5mC]*eA*eA*eG*eG*dA*dG*d[5mC]*d[5mC]*d[5mC]*dT*dT*d[5mC]*dT*dT*eG*e[5mC]*e[5mC]*e[5mC]*eT; antisense) [ISIS 359524] | 56
12 | CAGGCCAACCAGGAGCAGCC (e[5mC]*eA*eG*eG*e[5mC]*d[5mC]*dA*dA*d[5mC]*d[5mC]*dA*dG*dG*dA*dG*e[5mC]*eA*eG*e[5mC]*e[5mC]; antisense) [ISIS 359508] | 68
13 | CATGCTGGTTGACAGGATGG (e[5mC]*eA*eT*eG*e[5mC]*dT*dG*dG*dT*dT*dG*dA*d[5mC]*dA*dG*eG*eA*eT*eG*eG; antisense) [ISIS 359512] | 43
14 | CCAACCAGGAGCAGCCCAGA (e[5mC]*e[5mC]*eA*eA*e[5mC]*d[5mC]*dA*dG*dG*dA*dG*d[5mC]*dA*dG*d[5mC]*e[5mC]*e[5mC]*eA*eG*eA; antisense) [ISIS 359507] | 49
15 | CCAGCCCTCCAGCCAGGTTC (e[5mC]*e[5mC]*eA*eG*e[5mC]*d[5mC]*d[5mC]*dT*d[5mC]*d[5mC]*dA*dG*d[5mC]*d[5mC]*dA*eG*eG*eT*eT*e[5mC]; antisense) [ISIS 359516] | 69
16 | CCAGCGTGCTGCGCCAGCTG (e[5mC]*e[5mC]*eA*eG*e[5mC]*dG*dT*dG*d[5mC]*dT*dG*d[5mC]*dG*d[5mC]*d[5mC]*eA*eG*e[5mC]*eT*eG; antisense) [ISIS 359518] | 47
17 | CCAGGAGCAGCCCAGAAGAG (e[5mC]*e[5mC]*eA*eG*eG*dA*dG*d[5mC]*dA*dG*d[5mC]*d[5mC]*d[5mC]*dA*dG*eA*eA*eG*eA*eG; antisense) [ISIS 359506] | 58
18 | CCATACGAGGAGAAACCAAA (e[5mC]*e[5mC]*eA*eT*eA*d[5mC]*dG*dA*dG*dG*dA*dG*dA*dA*dA*e[5mC]*e[5mC]*eA*eA*eA; antisense) [ISIS 359542] | 46
19 | CCATCTTGGTGCGGATGTTT (e[5mC]*e[5mC]*eA*eT*e[5mC]*dT*dT*dG*dG*dT*dG*d[5mC]*dG*dG*dA*eT*eG*eT*eT*eT; antisense) [ISIS 359547] | 91
20 | CCCTCCAGCCAGGTTCATGC (e[5mC]*e[5mC]*e[5mC]*eT*e[5mC]*d[5mC]*dA*dG*d[5mC]*d[5mC]*dA*dG*dG*dT*dT*e[5mC]*eA*eT*eG*e[5mC]; antisense) [ISIS 359515] | 62
21 | CGAGGAGAAACCAAATACAG (e[5mC]*eG*eA*eG*eG*dA*dG*dA*dA*dA*d[5mC]*d[5mC]*dA*dA*dA*eT*eA*e[5mC]*eA*eG; antisense) [ISIS 359541] | 41
22 | CTGGTCACTGTTACCCGGAA (e[5mC]*eT*eG*eG*eT*d[5mC]*dA*d[5mC]*dT*dG*dT*dT*dA*d[5mC]*d[5mC]*e[5mC]*eG*eG*eA*eA; antisense) [ISIS 359533] | 69
23 | CTGGTTGACAGGATGGCCCA (e[5mC]*eT*eG*eG*eT*dT*dG*dA*d[5mC]*dA*dG*dG*dA*dT*dG*eG*e[5mC]*e[5mC]*e[5mC]*eA; antisense) [ISIS 359511] | 55
24 | GAAACCAAATACAGCTCCCA (eG*eA*eA*eA*e[5mC]*d[5mC]*dA*dA*dA*dT*dA*d[5mC]*dA*dG*d[5mC]*eT*e[5mC]*e[5mC]*e[5mC]*eA; antisense) [ISIS 359539] | 38

tested on: mouse glucose-6-phosphatase translocase mRNA; assay: Antisense inhibition of mouse glucose-6-phosphatase translocase mRNA in primary mouse hepatocytes, 50 nM (Table 5); assay type: cell-based; conditions: 50 nM oligonucleotide, mRNA by real-time PCR, normalized with RIBOGREEN
Procedure: Primary mouse hepatocytes were prepared from CD-1 mice purchased from Charles River Labs. Primary mouse hepatocytes were routinely cultured in Hepatocyte Attachment Media supplemented with 10% fetal bovine serum (Invitrogen Life Technologies, Carlsbad, Calif.), 250 nM dexamethasone, and 10 nM bovine insulin (Sigma-Aldrich, St. Louis, Mo.). Cells were seeded into 96-well plates (Falcon-Primaria #353872, BD Biosciences, Bedford, Mass.) at a density of approximately 4,000-6,000 cells/well for use in oligomeric compound transfection experiments.
as §1, §2, §3
A series of oligomeric compounds was designed to target different regions of mouse glucose-6-phosphatase translocase, using published sequences cited in Table 1. All compounds in Table 5 are chimeric oligonucleotides (“gapmers”) 20 nucleotides in length, composed of a central “gap” region consisting of 10 2′-deoxynucleotides, which is flanked on both sides (5′ and 3′) by five-nucleotide “wings”. The wings are composed of 2′-O-(2-methoxyethyl) nucleotides, also known as 2′-MOE nucleotides. The internucleoside (backbone) linkages are phosphorothioate throughout the oligonucleotide. All cytidine residues are 5-methylcytidines. The compounds were analyzed for their effect on gene target mRNA levels by quantitative real-time PCR as described in other examples herein, using the following primer-probe set designed to hybridize to mouse glucose-6-phosphatase translocase: • forward primer: […] (SEQ ID NO: 66) • reverse primer: CCATCCCAGCCATCATGAG (SEQ ID NO: 67) and the PCR probe was: FAM-[…]-TAMRA (SEQ ID NO: 68) where FAM is the fluorescent reporter dye and TAMRA is the quencher dye. Mouse target gene quantities were normalized by quantifying total RNA using RIBOGREEN™.
Data are from experiments in which primary mouse hepatocytes were treated with 50 nM of the antisense oligonucleotides of the present invention. A reduction in expression is expressed as percent inhibition in Table 5. If present, “N.D.” indicates “not determined”. The target regions to which these oligomeric compounds are inhibitory are herein referred to as “validated target segments.”

Row | Sequence | % Inhib [%]
25 | TCGTCCTTGTCCAGAGCGAT (eT*e[5mC]*eG*eT*e[5mC]*d[5mC]*dT*dT*dG*dT*d[5mC]*d[5mC]*dA*dG*dA*eG*e[5mC]*eG*eA*eT; antisense) [ISIS 148946] | 70
26 | TCTCTTTAGTGCCTGGATCT (eT*e[5mC]*eT*e[5mC]*eT*dT*dT*dA*dG*dT*dG*d[5mC]*d[5mC]*dT*dG*eG*eA*eT*e[5mC]*eT; antisense) [ISIS 148937] | 52
27 | TGCCTGGATCTGCTGAGCTG (eT*eG*e[5mC]*e[5mC]*eT*dG*dG*dA*dT*d[5mC]*dT*dG*d[5mC]*dT*dG*eA*eG*e[5mC]*eT*eG; antisense) [ISIS 148936] | 39
28 | TGTGCTCCAGCTATAGTGCT (eT*eG*eT*eG*e[5mC]*dT*d[5mC]*d[5mC]*dA*dG*d[5mC]*dT*dA*dT*dA*eG*eT*eG*e[5mC]*eT; antisense) [ISIS 148981] | 59

Source: patent US8258114B2, “Modulation of glucose-6-phosphatase translocase expression” (Isis Pharmaceuticals, Inc., priority 2004, dated 2012)
